According to paper PMC8280112, “Substrate reduction therapy for Krabbe disease and metachromatic leukodystrophy using a novel ceramide galactosyltransferase inhibitor” (Scientific Reports, 2021):

Experiments:
[1] = system: GalCer and sulfatide levels; assay: PND3 wild-type mouse repeat dose study: LC-MS of GalCer and sulfatide in brain and sciatic nerve; type: in vivo; details: wild-type mice
Description: Animals were euthanized by exsanguinations under deep anesthesia, the brain and sciatic nerve were removed, rinsed in cold saline, dried, and snap frozen for lipid quantification.
Whole brain was homogenized in 3 volumes H2O (v/w) and further diluted as necessary in H2O. Given the small size, the sciatic nerve weight was recorded and homogenized in a larger fixed volume. 25 µL of diluted homogenate was added to 35 µL DMSO, 200 µL of methanol, and 325 µL acetone/methanol (50/50) and vortexed approximately 30 min. Next, 150 µL water and 300 µL water/methanol (13/87) were added before centrifuging for 5 min at RT at 14,000 rpm. […] supernatant was transferred onto a pre-conditioned C18-SPE cartridge, washed with 2 mL methanol/acetone/water (67/23/10), and eluted with 1.5 mL acetone/methanol (90/10). The eluate was dried before reconstituting with 50 µL DMSO (including N-C16:0-CD3-Glucosylceramide, IS Matreya) and 200 ACN. 3 µL of suspension was injected into LC–MS/MS for analysis. GalCers were separated from isobaric GluCers by Halo-Hilic (4.6 × 150 mm, 2.7 µm) column with a mobile phase of 95/2.5/2.5 ACN/MeOH/H2O (with 0.5 FA + 5 mM NH4OAc) 100% for 9.5 min at 50 °C and a 0.50 mL/min flow rate. Non-hydroxy-GalCer and 2-hydroxy-GalCer were detected using MRM on an LC–MS/MS (Agilent 6410) in positive ESI mode. Purified non-hydroxy-GalCer (Kerasin, Matreya) or 2-hydroxy-GalCer (Phrenosin, Matreya) were used as reference standards. All non-hydroxy-GalCer or 2-hydroxy-GalCer species identified in the reference standards were summed, normalized to the IS, and reported as percentage of vehicle control (Fig. 2B,C). In Supplementary Figure S1, individual acyl chains were identified, normalized to the IS, and plotted as percentage of vehicle control.
Previously diluted brain homogenate was serially diluted (10 µL into 90 µL and then 20 µL into 80 µL) in ACN/H2O (v/v 1:1) before being added to 300 µL ACN with IS (N-C18:0-CD3-sulfatide, Matreya). […] Non-hydroxy-sulfatide and 2-hydroxy-sulfatide were detected using MRM on a UPLC-MS/MS-22 (Triple Quad 6500) in positive ESI mode. […]

[2] = system: wild-type mice; assay: PND15 wild-type mice tolerability study: blood chemistry and hematology; type: in vivo, mouse; details: PND15-PND70, Avg
Description: Maximum obtainable terminal blood collection was taken via cardiac puncture and split. 200 µL into clot-activating tubes for serum processing and the following chemistry panel: AST, ALT, CKMB and electrolytes. 220 µL stored on wet ice and used for CBC.
Animals were euthanized with CO2 followed by cardiac puncture. Blood was collected via cardiac puncture and split for blood chemistry and hematology.

[3] = 2.3 mg/kg IP three times per week
[4] = 5.4 mg/kg IP three times per week

C[C@H]1N(c2ccc(Br)cc2)C(=O)N(c2ccc(Br)cc2)C1(O)c1cccc(OC(F)(F)F)c1 (stereo partly shown) [S202]
GalCer synthesis in the brains ([1]; higher doses (> 1.5 mg/kg)): reduced synthesis of both non-hydroxy-GalCer and 2-hydroxy-GalCer
2-hydroxy-GalCer levels in the brains ([1]; lower doses): consistently increase
non-hydroxy-GalCer levels in the brains ([1]; lower doses (0.015 to 0.5 mg/kg)): greatly decreased
#BASO [2, 3]: 0.02 10^3cells/µL
#EOS [2, 3]: 0.14 10^3cells/µL
#LUC [2, 3]: 0.11 10^3cells/µL
#LYMPH [2, 3]: 4.3 10^3cells/µL
#MONO [2, 3]: 0.12 10^3cells/µL
#NEUT [2, 3]: 0.8 10^3cells/µL
#RETIC [2, 3]: 291 10^9cells/L
%BASO [2, 3]: 0.4%
%EOS [2, 3]: 2.4%
%LUC [2, 3]: 2%
%LYMPH [2, 3]: 78.8%
%MONO [2, 3]: 2.3%
%NEUT [2, 3]: 14.3%
%RETIC [2, 3]: 2.9%
ALT [2, 3]: 257.2 IU/L
AST [2, 3]: 283.5 IU/L
CH [2, 3]: 13.3 pg
CHCM [2, 3]: 27.5 g/dL
CHR [2, 3]: 14.6 pg
CHm [2, 3]: 14 pg
CKMB [2, 3]: 250.5 U/L
CL [2, 3]: 109.4 mmol/L
HCT [2, 3]: 47.9%
HDW [2, 3]: 1.9 g/dL
HGB [2, 3]: 15.3 g/dL
HGBCell [2, 3]: 13.2 g/dL
K [2, 3]: 10.5 mmol/L
MCH [2, 3]: 15.4 pg
MCHC [2, 3]: 31.9 g/dL
MCV [2, 3]: 48.2 fL
MPM [2, 3]: 1.3 pg
MPV [2, 3]: 5.4 fL
NA [2, 3]: 148 mmol/L
PDW [2, 3]: 37.1%
PLT [2, 3]: 1.02e+06 µL⁻¹
RBC [2, 3]: 9.9e+06 µL⁻¹
RDW [2, 3]: 12.2%
WBC [2, 3]: 5500 µL⁻¹
#BASO [2, 4]: 0.013 10^3cells/µL
#EOS [2, 4]: 0.4 10^3cells/µL
#LUC [2, 4]: 0.047 10^3cells/µL
#LYMPH [2, 4]: 3.8 10^3cells/µL
#MONO [2, 4]: 0.08 10^3cells/µL
#NEUT [2, 4]: 0.55 10^3cells/µL
#RETIC [2, 4]: 285 10^9cells/L
%BASO [2, 4]: 0.35%
%EOS [2, 4]: 8.2%
%LUC [2, 4]: 0.9%
%LYMPH [2, 4]: 77.6%
%MONO [2, 4]: 1.6%
%NEUT [2, 4]: 11.4%
%RETIC [2, 4]: 2.7%
ALT [2, 4]: 99.5 IU/L
AST [2, 4]: 132.8 IU/L
CH [2, 4]: 13.1 pg
CHCM [2, 4]: 27.3 g/dL
CHR [2, 4]: 14.6 pg
CHm [2, 4]: 13.8 pg
CKMB [2, 4]: 126.4 U/L
CL [2, 4]: 111.3 mmol/L
HCT [2, 4]: 50.1%
HDW [2, 4]: 1.93 g/dL
HGB [2, 4]: 15.9 g/dL
HGBCell [2, 4]: 13.7 g/dL
K [2, 4]: 9.6 mmol/L
MCH [2, 4]: 15.3 pg
MCHC [2, 4]: 31.8 g/dL
MCV [2, 4]: 48.1 fL
MPM [2, 4]: 1.3 pg
MPV [2, 4]: 5.82 fL
NA [2, 4]: 150.9 mmol/L
PDW [2, 4]: 46.63%
PLT [2, 4]: 737200 µL⁻¹
RBC [2, 4]: 1.04e+07 µL⁻¹
RDW [2, 4]: 11.8%
WBC [2, 4]: 4900 µL⁻¹
